Experimental data published in patent US20150150159A1, “METHOD FOR CONTROLLING FUNGAL DISEASES IN MUSHROOM PRODUCTION” (DSM IP ASSETS B.V., priority 2012, published 2015).

System: Trichoderma harzianum
Assay: In vitro antifungal activity assay in 96-well microtiter plates (mould growth reduction, Colby synergy)
Assay type: cell-based
Procedure: The following compositions are tested: • Control (no active ingredient), • 1.25 ppm natamycin (DSM Food Specialties, Delft, The Netherlands), • 0.5, 1.0, 1.25 or 1.5 ppm thiabendazole, • 1.25 ppm natamycin+0.5 ppm thiabendazole, • 1.25 ppm natamycin+1.0 ppm thiabendazole, • 1.25 ppm natamycin+1.25 ppm thiabendazole, • 1.25 ppm natamycin+1.5 ppm thiabendazole. […] Subsequently, 100 μl of a Trichoderma harzianum suspension prepared in PCB medium is used to inoculate each well with 5.0×10^3 spores/ml. […] After incubation of the microtiter plates for 3, 5, 10 and 17 days at 25° C., the in vitro antifungal activity (%) of the individual active ingredients was assessed by calculating the reduction in mould growth observed in the presence of the active ingredient in comparison to the mould growth observed in the absence of the active ingredient. The expected antifungal activity (E in %) of the active ingredient combination was calculated according to the Colby equation (Colby, 1967): E=X+Y−[(X·Y)/100] wherein X and Y are the observed antifungal activities (in %) of the individual active ingredients X and Y, respectively. If the observed antifungal activity (O in %) of the combination exceeds the expected antifungal activity (E in %) of the combination and the resulting synergy factor O/E is thus >1.0, the combined application of the active ingredients leads to a synergistic antifungal effect.

Measured: Observed antifungal activity O (%)

C[C@@H]1C/C=C/C=C/C=C/C=C/[C@H](O[C@@H]2O[C@H](C)[C@@H](O)[C@H](N)[C@@H]2O)C[C@@H]2O[C@](O)(C[C@@H](O)C[C@H]3O[C@@H]3/C=C/C(=O)O1)C[C@H](O)[C@H]2C(=O)O [Natamycin, natamycin]
0%: Natamycin 1.25 ppm, 3 days incubation at 25° C. | Natamycin 1.25 ppm, 5 days incubation at 25° C. | Natamycin 1.25 ppm, 10 days incubation at 25° C. | Natamycin 1.25 ppm, 17 days incubation at 25° C.

c1ccc2[nH]c(-c3cscn3)nc2c1 [Thiabendazole, 4-(1H-1,3-benzodiazol-2-yl)-1,3-thiazole]
0%: Thiabendazole 0.5 ppm, 3 days incubation at 25° C. | Thiabendazole 1.0 ppm, 5 days incubation at 25° C. | Thiabendazole 1.25 ppm, 5 days incubation at 25° C. | Thiabendazole 1.25 ppm, 10 days incubation at 25° C. | Thiabendazole 1.5 ppm, 10 days incubation at 25° C. | Thiabendazole 1.5 ppm, 17 days incubation at 25° C.
